ChEMBL document CHEMBL1154758 (J Med Chem, 2010)

Key:
Carbonic anhydrase 13 = Carbonic anhydrase 13 (Homo sapiens, UniProt Q8N1Q1)
Carbonic anhydrase 3 = Carbonic anhydrase 3 (Homo sapiens, UniProt P07451)
Carbonic anhydrase 14 = Carbonic anhydrase 14 (Homo sapiens, UniProt Q9ULX7)
Carbonic anhydrase 12 = Carbonic anhydrase 12 (Homo sapiens, UniProt O43570); experiment: Inhibition of human recombinant CA12 by stopped flow CO2 hydrase assay
Carbonic anhydrase 15 = biological target: T1, Carbonic anhydrase 15 (Mus musculus, UniProt Q99N23)
T1 sequence (Q99N23 whole entry): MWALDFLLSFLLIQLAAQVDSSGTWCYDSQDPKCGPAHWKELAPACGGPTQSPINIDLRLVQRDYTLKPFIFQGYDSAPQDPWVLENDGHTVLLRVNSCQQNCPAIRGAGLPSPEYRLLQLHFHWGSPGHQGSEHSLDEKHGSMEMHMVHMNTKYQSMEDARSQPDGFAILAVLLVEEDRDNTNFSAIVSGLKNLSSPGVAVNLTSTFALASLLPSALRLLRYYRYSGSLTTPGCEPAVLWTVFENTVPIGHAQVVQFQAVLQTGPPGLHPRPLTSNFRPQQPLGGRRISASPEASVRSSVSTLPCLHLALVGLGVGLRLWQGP

Carbonic anhydrase 4 = Carbonic anhydrase 4 (Homo sapiens, UniProt P22748)
Carbonic anhydrase 6 = Carbonic anhydrase 6 (Homo sapiens, UniProt P23280)
[1] = biological target: Carbonic anhydrase 5B, mitochondrial (Homo sapiens, UniProt Q9Y2D0)
[2] = biological target: Carbonic anhydrase 5A, mitochondrial (Homo sapiens, UniProt P35218)
Carbonic anhydrase 1 = Carbonic anhydrase 1 (Homo sapiens, UniProt P00915)
Carbonic anhydrase 9 = Carbonic anhydrase 9 (Homo sapiens, UniProt Q16790)
Carbonic anhydrase 7 = Carbonic anhydrase 7 (Homo sapiens, UniProt P43166); experiment: Inhibition of human recombinant CA7 by stopped flow CO2 hydrase assay
Carbonic anhydrase 7, sequence (P43166 whole entry): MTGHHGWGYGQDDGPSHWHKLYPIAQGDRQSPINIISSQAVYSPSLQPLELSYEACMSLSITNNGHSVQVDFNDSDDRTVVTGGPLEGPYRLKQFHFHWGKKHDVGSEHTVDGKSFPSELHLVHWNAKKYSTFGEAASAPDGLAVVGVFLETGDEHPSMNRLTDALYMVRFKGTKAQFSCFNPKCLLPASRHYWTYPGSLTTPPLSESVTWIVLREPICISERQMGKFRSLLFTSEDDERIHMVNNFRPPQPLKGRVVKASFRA

Carbonic anhydrase 13, sequence (Q8N1Q1 whole entry): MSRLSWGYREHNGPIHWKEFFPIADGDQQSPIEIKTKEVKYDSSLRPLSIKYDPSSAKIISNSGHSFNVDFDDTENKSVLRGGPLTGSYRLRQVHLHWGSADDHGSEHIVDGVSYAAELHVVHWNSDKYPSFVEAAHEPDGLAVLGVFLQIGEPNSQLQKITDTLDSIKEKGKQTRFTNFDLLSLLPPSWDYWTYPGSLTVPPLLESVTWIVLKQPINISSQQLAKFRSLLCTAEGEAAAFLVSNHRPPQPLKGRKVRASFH
Carbonic anhydrase 3, sequence (P07451 whole entry): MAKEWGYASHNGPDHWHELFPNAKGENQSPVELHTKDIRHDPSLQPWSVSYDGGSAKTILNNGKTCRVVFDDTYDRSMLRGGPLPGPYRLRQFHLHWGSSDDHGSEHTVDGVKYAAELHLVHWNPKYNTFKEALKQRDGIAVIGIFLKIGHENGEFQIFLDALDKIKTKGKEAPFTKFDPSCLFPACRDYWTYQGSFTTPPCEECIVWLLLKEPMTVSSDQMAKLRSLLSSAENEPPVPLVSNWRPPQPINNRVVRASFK
Carbonic anhydrase 5A, mitochondrial, sequence (P35218 whole entry): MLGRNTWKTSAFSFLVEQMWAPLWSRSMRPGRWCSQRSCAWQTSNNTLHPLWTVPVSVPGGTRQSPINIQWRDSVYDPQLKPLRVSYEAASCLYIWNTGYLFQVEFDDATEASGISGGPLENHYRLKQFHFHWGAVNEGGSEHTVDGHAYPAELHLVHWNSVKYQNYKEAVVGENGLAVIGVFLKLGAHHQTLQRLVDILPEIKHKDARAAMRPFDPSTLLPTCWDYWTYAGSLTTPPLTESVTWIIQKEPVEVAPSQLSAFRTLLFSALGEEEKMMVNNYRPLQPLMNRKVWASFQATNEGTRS
Carbonic anhydrase 5B, mitochondrial, sequence (Q9Y2D0 whole entry): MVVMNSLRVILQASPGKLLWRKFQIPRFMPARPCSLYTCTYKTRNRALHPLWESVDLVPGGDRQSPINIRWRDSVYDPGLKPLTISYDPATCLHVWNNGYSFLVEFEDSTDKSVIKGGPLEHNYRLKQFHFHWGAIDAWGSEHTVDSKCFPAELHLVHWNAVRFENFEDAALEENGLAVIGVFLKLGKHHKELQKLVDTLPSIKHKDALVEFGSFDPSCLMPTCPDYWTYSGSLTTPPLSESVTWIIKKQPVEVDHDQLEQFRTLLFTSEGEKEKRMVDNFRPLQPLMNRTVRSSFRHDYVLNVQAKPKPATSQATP
Carbonic anhydrase 6, sequence (P23280 whole entry): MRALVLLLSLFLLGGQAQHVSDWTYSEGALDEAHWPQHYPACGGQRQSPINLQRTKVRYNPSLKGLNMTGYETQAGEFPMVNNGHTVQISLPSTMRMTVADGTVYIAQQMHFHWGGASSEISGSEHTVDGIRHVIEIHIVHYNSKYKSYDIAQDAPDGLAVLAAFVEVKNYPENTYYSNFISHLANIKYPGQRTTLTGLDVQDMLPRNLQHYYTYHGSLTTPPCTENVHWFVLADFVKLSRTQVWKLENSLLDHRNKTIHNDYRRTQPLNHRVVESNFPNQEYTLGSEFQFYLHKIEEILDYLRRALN
Carbonic anhydrase 12, sequence (O43570 whole entry): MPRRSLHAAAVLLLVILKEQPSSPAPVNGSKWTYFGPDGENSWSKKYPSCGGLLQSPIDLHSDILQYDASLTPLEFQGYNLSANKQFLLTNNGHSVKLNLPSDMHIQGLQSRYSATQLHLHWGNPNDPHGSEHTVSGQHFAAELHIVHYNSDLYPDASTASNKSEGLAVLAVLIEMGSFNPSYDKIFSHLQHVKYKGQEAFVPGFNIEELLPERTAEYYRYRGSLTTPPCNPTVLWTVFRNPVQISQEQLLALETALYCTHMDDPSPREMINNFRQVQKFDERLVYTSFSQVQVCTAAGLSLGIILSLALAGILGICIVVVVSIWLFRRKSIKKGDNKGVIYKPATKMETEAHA
Carbonic anhydrase 4, sequence (P22748 whole entry): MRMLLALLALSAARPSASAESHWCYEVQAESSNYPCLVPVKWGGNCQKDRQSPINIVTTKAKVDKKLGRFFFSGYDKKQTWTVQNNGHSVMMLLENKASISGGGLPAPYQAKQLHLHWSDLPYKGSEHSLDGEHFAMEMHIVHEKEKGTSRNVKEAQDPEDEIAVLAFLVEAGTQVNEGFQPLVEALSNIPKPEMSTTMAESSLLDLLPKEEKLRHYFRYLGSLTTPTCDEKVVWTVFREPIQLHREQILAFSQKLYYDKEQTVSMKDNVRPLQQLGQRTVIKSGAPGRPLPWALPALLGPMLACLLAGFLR
Carbonic anhydrase 14, sequence (Q9ULX7 whole entry): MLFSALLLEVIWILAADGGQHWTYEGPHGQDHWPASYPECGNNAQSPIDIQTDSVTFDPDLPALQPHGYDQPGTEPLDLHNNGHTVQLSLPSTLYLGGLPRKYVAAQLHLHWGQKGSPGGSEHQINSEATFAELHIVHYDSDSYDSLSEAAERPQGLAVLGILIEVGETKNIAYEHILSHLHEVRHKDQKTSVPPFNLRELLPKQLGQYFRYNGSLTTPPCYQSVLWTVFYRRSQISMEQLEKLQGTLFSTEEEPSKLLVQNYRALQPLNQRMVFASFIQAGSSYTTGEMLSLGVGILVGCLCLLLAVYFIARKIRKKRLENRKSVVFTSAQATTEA
Carbonic anhydrase 1, sequence (P00915 whole entry): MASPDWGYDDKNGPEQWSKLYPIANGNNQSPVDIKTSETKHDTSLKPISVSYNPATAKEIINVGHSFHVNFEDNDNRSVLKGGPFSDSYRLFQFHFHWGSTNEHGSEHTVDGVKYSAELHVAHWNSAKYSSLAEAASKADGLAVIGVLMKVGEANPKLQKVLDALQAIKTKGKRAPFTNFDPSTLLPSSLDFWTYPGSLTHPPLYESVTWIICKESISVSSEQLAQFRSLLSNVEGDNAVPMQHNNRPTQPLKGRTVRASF

| Compound | Ki (Carbonic anhydrase 13) | Ki (Carbonic anhydrase 3) | Ki (Carbonic anhydrase 14) | Ki (Carbonic anhydrase 12) | Ki (Carbonic anhydrase 15) | Ki (Carbonic anhydrase 4) | Ki (Carbonic anhydrase 6) | Ki [1] | Ki [2] | Ki (Carbonic anhydrase 1) | Ki (Carbonic anhydrase 9) | Ki (Carbonic anhydrase 7) |
| --- | --- | --- | --- | --- | --- | --- | --- | --- | --- | --- | --- | --- |
| Nc1ccc(S(N)(=O)=O)cc1 [SULFANILAMIDE] | 32 nM | 988 nM |  |  |  |  |  |  |  |  |  |  |
| COC[C@@H](NC(C)=O)C(=O)NCc1ccccc1 [LACOSAMIDE] | 1210 nM | 374 nM | 473 nM | 3710 nM | 461 nM | 525 nM | 412 nM | 341 nM | 4570 nM | 362 nM | 353 nM | 4450 nM |
| COc1cc2oc(=O)ccc2cc1[C@@H](O)CC(C)C |  |  |  |  | 93100 nM |  |  |  |  |  |  |  |
